Reference: patent publication US12371428B2 (Exelixis, Inc., priority 2019, dated 2025)
Where two headings read alike, the source gives them in different places.

Tests used:
Assay type in all cases: cell-based
[1] = target: AXL (phospho-AXL, Gas6-stimulated A-172 glioblastoma cells) (Homo sapiens (Human), UniProt P30530); test: AXL autophosphorylation ELISA in A-172 cells (Example E); conditions: cellular activity, read-out: Axl IC50
Procedure, shortened: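 Phospho-AXL in lysates was quantified by ELISA, normalised to DMSO (100%) and reference inhibitor (0%) controls. IC50 by 4-parameter logistic fit.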

[2] = target: Met (phospho-Met, HGF-stimulated PC-3 prostate cancer cells) (Homo sapiens (Human), UniProt P08581); test: Met autophosphorylation ELISA in PC-3 cells (Example F); conditions: cellular activity, read-out: c-Met IC50
Chain of Met (phospho-Met, HGF-stimulated PC-3 prostate cancer cells) (P08581 25-1390): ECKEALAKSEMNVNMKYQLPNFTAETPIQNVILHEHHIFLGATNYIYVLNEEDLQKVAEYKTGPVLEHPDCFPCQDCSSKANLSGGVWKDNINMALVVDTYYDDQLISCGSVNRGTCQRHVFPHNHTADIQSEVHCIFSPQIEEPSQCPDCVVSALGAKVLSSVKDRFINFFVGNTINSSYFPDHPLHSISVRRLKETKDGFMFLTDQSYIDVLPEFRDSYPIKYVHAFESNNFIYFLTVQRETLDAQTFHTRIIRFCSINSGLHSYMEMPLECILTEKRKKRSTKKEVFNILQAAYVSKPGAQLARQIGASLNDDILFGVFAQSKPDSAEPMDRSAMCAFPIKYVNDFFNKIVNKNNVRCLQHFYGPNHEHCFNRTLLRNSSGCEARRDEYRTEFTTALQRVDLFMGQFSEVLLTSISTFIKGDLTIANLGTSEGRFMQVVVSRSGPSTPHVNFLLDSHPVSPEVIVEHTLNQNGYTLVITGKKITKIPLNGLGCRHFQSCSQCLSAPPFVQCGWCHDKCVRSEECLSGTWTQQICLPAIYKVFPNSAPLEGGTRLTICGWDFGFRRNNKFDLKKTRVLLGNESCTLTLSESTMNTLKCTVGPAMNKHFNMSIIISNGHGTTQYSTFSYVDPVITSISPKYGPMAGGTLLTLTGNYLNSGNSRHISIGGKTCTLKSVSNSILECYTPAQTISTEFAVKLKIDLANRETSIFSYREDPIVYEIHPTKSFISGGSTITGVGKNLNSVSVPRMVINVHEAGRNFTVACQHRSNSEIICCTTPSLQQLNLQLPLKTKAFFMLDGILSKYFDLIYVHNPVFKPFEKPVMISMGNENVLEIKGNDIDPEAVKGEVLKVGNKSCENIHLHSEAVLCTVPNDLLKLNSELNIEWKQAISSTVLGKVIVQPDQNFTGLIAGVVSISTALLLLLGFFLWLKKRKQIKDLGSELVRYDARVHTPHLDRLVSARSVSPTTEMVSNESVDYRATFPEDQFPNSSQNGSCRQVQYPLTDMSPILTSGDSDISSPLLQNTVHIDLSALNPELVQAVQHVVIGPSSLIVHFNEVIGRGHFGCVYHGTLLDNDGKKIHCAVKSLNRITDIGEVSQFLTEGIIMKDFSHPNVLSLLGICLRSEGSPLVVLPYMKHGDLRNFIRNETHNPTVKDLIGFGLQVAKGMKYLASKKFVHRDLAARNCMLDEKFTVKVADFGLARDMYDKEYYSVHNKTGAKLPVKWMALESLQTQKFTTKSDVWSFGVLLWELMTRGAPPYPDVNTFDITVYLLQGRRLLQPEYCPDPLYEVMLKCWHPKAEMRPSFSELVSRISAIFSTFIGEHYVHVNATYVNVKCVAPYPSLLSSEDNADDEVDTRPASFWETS
Procedure, shortened: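 IC50 values derive from a 4-parameter logistic fit of phospho-Met (panTyr) sandwich ELISA signals in PC-3 lysates, scaled between DMSO and reference-inhibitor wells. Cells, starved 3 h in serum-free medium, had 1 h compound exposure (8 doses, 0.3% DMSO) before 10 min stimulation with 100 ng/mL HGF.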

[3] = target: KDR (phospho-KDR, VEGF165-stimulated HUVEC cells) (Homo sapiens (Human), UniProt P35968); test: KDR autophosphorylation ELISA in HUVEC cells (Example G); conditions: cellular activity
Chain of KDR (phospho-KDR, VEGF165-stimulated HUVEC cells) (P35968 20-1356): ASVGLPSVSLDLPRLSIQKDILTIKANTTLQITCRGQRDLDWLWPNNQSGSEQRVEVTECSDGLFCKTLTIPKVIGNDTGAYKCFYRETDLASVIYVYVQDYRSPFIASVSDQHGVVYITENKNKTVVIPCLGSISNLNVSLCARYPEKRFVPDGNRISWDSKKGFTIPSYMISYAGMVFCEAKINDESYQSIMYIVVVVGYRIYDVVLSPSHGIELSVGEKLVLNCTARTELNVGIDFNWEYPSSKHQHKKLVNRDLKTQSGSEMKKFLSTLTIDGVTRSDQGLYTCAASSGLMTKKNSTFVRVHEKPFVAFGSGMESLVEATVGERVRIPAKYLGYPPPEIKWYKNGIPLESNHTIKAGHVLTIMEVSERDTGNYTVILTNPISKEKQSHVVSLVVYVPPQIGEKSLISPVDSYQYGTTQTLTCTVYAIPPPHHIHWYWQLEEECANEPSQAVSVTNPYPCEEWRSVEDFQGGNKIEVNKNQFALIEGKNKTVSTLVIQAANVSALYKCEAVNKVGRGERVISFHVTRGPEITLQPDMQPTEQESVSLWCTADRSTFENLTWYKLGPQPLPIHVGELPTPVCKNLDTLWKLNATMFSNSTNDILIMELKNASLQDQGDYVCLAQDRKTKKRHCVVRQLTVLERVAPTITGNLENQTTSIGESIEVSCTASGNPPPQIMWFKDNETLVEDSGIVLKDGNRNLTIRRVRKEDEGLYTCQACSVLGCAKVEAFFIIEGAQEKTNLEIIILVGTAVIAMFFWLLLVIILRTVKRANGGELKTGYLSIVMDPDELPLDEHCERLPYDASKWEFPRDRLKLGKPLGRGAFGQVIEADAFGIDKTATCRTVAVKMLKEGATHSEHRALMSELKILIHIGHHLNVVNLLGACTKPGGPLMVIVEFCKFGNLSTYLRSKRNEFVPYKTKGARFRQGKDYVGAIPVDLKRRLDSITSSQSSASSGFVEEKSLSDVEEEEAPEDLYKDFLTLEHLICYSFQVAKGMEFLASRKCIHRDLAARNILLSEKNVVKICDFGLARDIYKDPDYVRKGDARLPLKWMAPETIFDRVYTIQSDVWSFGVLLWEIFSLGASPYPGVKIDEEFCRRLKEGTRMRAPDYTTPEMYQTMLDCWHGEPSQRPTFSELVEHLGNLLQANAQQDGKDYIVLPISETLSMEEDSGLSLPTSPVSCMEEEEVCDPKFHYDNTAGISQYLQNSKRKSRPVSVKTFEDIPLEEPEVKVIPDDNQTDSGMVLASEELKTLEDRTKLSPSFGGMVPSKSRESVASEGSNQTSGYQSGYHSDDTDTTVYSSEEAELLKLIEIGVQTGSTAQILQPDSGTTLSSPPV
Procedure, shortened: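 HUVEC cells, serum-starved 24 h, were treated 1 h with an 8-point compound dilution (0.3% DMSO) and then stimulated with 100 ng/mL VEGF165 for 5 min. Phospho-KDR in lysates was quantified by sandwich ELISA against a phospho-KDR standard. IC50 from a 4-parameter logistic fit, normalised between stimulated DMSO and unstimulated controls.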

[4] = target: Mer (phospho-Mer, MERTK-transfected 293A cells) (Homo sapiens (Human), UniProt Q12866); test: Mer autophosphorylation ELISA in transient transfected 293A cells (Example H); conditions: cellular activity
Chain of Mer (phospho-Mer, MERTK-transfected 293A cells) (Q12866 21-999): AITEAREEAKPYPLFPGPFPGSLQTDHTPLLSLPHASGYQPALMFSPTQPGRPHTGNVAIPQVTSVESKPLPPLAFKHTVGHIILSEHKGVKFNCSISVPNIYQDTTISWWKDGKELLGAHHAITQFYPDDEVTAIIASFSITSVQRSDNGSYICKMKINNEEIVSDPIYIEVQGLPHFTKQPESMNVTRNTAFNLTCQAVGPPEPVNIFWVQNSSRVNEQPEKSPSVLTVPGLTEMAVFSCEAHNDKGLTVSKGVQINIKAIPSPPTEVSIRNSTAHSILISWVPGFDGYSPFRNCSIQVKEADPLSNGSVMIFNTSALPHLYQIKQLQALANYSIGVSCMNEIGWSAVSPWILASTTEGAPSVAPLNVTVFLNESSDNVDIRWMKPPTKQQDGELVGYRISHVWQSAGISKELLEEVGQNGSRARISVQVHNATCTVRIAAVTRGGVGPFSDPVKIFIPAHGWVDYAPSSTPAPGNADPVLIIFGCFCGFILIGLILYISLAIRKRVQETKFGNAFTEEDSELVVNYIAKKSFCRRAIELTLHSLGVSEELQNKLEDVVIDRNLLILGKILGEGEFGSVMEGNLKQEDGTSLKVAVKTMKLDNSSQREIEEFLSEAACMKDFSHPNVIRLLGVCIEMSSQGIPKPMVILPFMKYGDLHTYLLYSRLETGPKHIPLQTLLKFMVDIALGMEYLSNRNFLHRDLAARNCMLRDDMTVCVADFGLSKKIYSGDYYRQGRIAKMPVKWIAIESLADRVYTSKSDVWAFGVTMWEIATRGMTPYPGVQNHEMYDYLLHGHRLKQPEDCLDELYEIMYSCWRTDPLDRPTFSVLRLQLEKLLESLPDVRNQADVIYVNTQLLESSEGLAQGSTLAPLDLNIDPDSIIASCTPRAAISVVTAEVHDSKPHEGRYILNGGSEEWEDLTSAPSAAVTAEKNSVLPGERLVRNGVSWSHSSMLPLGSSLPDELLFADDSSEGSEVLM
Procedure, shortened: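 Human MERTK transiently transfected into 293A cells; compounds as 8-point dose curve in serum-free medium (0.3% DMSO final), 1 h. Lysates assayed by phospho-Mer sandwich ELISA against phospho-Mer standard; DMSO = 100%, reference inhibitor = 0% activity; IC50 from 4-parameter logistic fit.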

[5] = AXL autophosphorylation ELISA in A-172 cells
[6] = Met autophosphorylation ELISA in PC-3 cells
[7] = KDR autophosphorylation ELISA in HUVEC cells
[8] = Mer autophosphorylation ELISA in transient transfected 293A cells

Chain of AXL (phospho-AXL, Gas6-stimulated A-172 glioblastoma cells) (P30530 26-894): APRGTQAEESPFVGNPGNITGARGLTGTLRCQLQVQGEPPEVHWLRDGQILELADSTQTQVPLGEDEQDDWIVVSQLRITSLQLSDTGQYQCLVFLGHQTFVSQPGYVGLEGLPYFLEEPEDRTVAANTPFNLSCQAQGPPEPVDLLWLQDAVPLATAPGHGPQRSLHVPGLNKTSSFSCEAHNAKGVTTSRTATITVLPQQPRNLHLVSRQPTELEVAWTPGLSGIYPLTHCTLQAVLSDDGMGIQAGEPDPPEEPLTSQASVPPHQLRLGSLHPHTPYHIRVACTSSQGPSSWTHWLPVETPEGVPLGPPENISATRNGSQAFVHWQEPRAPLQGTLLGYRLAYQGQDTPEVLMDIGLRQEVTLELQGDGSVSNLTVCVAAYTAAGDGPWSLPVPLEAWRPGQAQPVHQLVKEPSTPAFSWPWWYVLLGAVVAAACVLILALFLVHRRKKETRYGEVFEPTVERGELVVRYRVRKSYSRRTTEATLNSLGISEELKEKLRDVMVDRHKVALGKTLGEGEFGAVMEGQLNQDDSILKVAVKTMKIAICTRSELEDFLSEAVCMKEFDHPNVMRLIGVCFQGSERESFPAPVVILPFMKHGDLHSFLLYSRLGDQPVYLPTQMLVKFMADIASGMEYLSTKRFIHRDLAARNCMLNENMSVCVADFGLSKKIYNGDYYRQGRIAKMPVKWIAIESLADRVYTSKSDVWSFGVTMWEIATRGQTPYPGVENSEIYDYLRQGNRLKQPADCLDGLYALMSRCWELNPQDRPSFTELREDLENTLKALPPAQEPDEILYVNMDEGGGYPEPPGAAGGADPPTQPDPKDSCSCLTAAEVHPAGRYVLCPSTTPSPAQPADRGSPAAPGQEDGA

IC50 [1, 5] | IC50 [2, 6] | IC50 [3, 7] | IC50 [4, 8] | IC50 ([1]; A-172 cells) | IC50 ([2]; PC-3 cells) | IC50 ([3]; HUVEC cells) | IC50 ([4]; transfected 293A cells) | Compound
< 100 nM | < 100 nM | > 300 nM | < 100 nM |  |  |  |  | COc1cc(NC(=O)c2cn(C)c(C)c(-c3ccc(F)cc3)c2=O)c(F)cc1Oc1ccnc2cc(OC)c(OC)nc12 [Compound 745, N-[4-[(6,7-dimethoxy-1,5-naphthyridin-4-yl)oxy]-2-fluoro-5-methoxyphenyl]-5-(4-fluorophenyl)-1,6-dimethyl-4-oxopyridine-3-carboxamide]
> 300 nM | > 300 nM | > 300 nM | < 100 nM |  |  |  |  | COc1cc2nccc(Oc3ccc(NC(=O)c4cc(-c5ccc(F)cc5)c(C)nn4)cc3F)c2nc1OC [Compound 601, N-[4-[(6,7-Dimethoxy-1,5-naphthyridin-4-yl)oxy]-3-fluorophenyl]-5-(4-fluorophenyl)-6-methylpyridazine-3-carboxamide]
100 to 300 nM | > 300 nM | > 300 nM | < 100 nM |  |  |  |  | COc1cc2nccc(Oc3ccc(NC(=O)c4nnc(C)c(-c5ccc(F)cc5)c4Cl)cc3F)c2nc1OC [Compound 488, 4-chloro-N-[4-[(6,7-dimethoxy-1,5-naphthyridin-4-yl)oxy]-3-fluorophenyl]-5-(4-fluorophenyl)-6-methylpyridazine-3-carboxamide]
< 100 nM | < 100 nM | > 300 nM | < 100 nM |  |  |  |  | COc1cc2nccc(Oc3ccc(NC(=O)c4c(OC)c(C(C)=O)cn(-c5ccc(F)cc5)c4=O)cc3F)c2nc1OC [Compound 754, 5-acetyl-N-[4-[(6,7-dimethoxy-1,5-naphthyridin-4-yl)oxy]-3-fluorophenyl]-1-(4-fluorophenyl)-4-methoxy-2-oxopyridine-3-carboxamide]
< 100 nM | < 100 nM | > 300 nM | < 100 nM |  |  |  |  | COc1cc2nccc(Oc3ccc(NC(=O)c4cn(C(C)(C)CO)cc(-c5ccc(F)cc5)c4=O)cc3F)c2nc1OC [Compound 56, N-[4-[(6,7-Dimethoxy-1,5-naphthyridin-4-yl)oxy]-3-fluorophenyl]-5-(4-fluorophenyl)-1-(1-hydroxy-2-methylpropan-2-yl)-4-oxopyridine-3-carboxamide]
< 100 nM | < 100 nM | 100 to 300 nM | < 100 nM |  |  |  |  | COc1cc2nccc(Oc3ccc(NC(=O)c4cnc(C5CC5)c(-c5ccc(F)cc5)c4O)cc3F)c2nc1OC [Compound 662, 6-cyclopropyl-N-[4-[(6,7-dimethoxy-1,5-naphthyridin-4-yl)oxy]-3-fluorophenyl]-5-(4-fluorophenyl)-4-hydroxypyridine-3-carboxamide]
< 100 nM | < 100 nM | < 100 nM | < 100 nM |  |  |  |  | COCCOc1nc2c(Oc3ccc(NC(=O)c4ccc(C)n(-c5ccc(F)cc5)c4=O)cc3F)ncnc2cc1OC [Compound 650, N-[3-fluoro-4-[7-methoxy-6-(2-methoxyethoxy)pyrido[3,2-d]pyrimidin-4-yl]oxyphenyl]-1-(4-fluorophenyl)-6-methyl-2-oxopyridine-3-carboxamide]

More lines, now with the values behind:

Compound | IC50 [1, 5] | IC50 [2, 6] | IC50 [3, 7] | IC50 [4, 8] | IC50 ([1]; A-172 cells) | IC50 ([2]; PC-3 cells) | IC50 ([3]; HUVEC cells) | IC50 ([4]; transfected 293A cells)
COc1cc2nccc(Oc3ccc(NC(=O)c4cn5c(c(-c6ccc(F)cc6C)c4=O)COCC5)cc3F)c2nc1OC [Compound 766, N-[4-[(6,7-dimethoxy-1,5-naphthyridin-4-yl)oxy]-3-fluorophenyl]-9-(4-fluoro-2-methylphenyl)-8-oxo-3,4-dihydro-1H-pyrido[2,1-c][1,4]oxazine-7-carboxamide] | < 100 nM | < 100 nM | > 300 nM | < 100 nM |  |  |  | 
C=C(C)c1cnc2c(Oc3ccc(NC(=O)c4c(C)nc(C)n(-c5ccc(F)cc5)c4=O)cc3)ccnc2c1 [Compound 467, 1-(4-fluorophenyl)-2,4-dimethyl-6-oxo-N-[4-[(7-prop-1-en-2-yl-1,5-naphthyridin-4-yl)oxy]phenyl]pyrimidine-5-carboxamide] | < 100 nM | < 100 nM | < 100 nM | < 100 nM |  |  |  | 
COc1cc2nccc(Oc3ccc(NC(=O)c4c(C)c(F)c(C)n(-c5ccc(F)cc5)c4=O)cc3F)c2nc1OC [Compound 324, N-[4-[(6,7-Dimethoxy-1,5-naphthyridin-4-yl)oxy]-3-fluorophenyl]-5-fluoro-1-(4-fluorophenyl)-4,6-dimethyl-2-oxopyridine-3-carboxamide] | < 100 nM | < 100 nM | < 100 nM | < 100 nM |  |  |  | 
CCc1c(C)c(C(=O)Nc2ccc(Oc3ccnc4cc(OC)cnc34)c(F)c2)c(=O)n(-c2ccc(F)cc2)c1C [Compound 335, 5-ethyl-N-[3-fluoro-4-[(7-methoxy-1,5-naphthyridin-4-yl)oxy]phenyl]-1-(4-fluorophenyl)-4,6-dimethyl-2-oxopyridine-3-carboxamide] | < 100 nM | < 100 nM | > 300 nM | < 100 nM |  |  |  | 
CCOc1nc2c(Oc3ccc(NC(=O)c4c(COC)nc(C)c(-c5ccc(F)cc5)c4O)cc3)ccnc2cc1OC [Compound 672, N-[4-[(6-ethoxy-7-methoxy-1,5-naphthyridin-4-yl)oxy]phenyl]-5-(4-fluorophenyl)-4-hydroxy-2-(methoxymethyl)-6-methylpyridine-3-carboxamide] | < 100 nM | < 100 nM | < 100 nM | < 100 nM |  |  |  | 
C=C(C)c1cnc2c(Oc3ccc(NC(=O)c4nnc(C)c(-c5ccc(F)cc5)c4OCC)cc3F)ccnc2c1 [Compound 476, 4-ethoxy-5-(4-fluorophenyl)-N-[3-fluoro-4-[(7-prop-1-en-2-yl-1,5-naphthyridin-4-yl)oxy]phenyl]-6-methylpyridazine-3-carboxamide] | < 100 nM | < 100 nM | < 100 nM | < 100 nM |  |  |  | 
COc1cc2nccc(Oc3ccc(NC(=O)c4nnc(C)c(-c5ccc(F)cc5)c4OC)cc3F)c2cc1OC [Compound 571, N-[4-(6,7-Dimethoxyquinolin-4-yl)oxy-3-fluorophenyl]-5-(4-fluorophenyl)-4-methoxy-6-methylpyridazine-3-carboxamide] | < 100 nM | < 100 nM | < 100 nM | < 100 nM |  |  |  | 
CCOc1nc2c(Oc3ccc(NC(=O)c4c(C)ncc(-c5ccc(F)cc5)c4O)cc3F)ccnc2cc1OC [Compound 675, N-[4-[(6-ethoxy-7-methoxy-1,5-naphthyridin-4-yl)oxy]-3-fluorophenyl]-5-(4-fluorophenyl)-4-hydroxy-2-methylpyridine-3-carboxamide] | < 100 nM | < 100 nM | < 100 nM | < 100 nM |  |  |  | 
C=C(C)c1cnc2c(Oc3ccc(NC(=O)c4n[nH]c(C)c(-c5ccc(F)cc5)c4=O)cc3F)ccnc2c1 [Compound 464, 5-(4-fluorophenyl)-N-[3-fluoro-4-[(7-prop-1-en-2-yl-1,5-naphthyridin-4-yl)oxy]phenyl]-6-methyl-4-oxo-1H-pyridazine-3-carboxamide] | < 100 nM | < 100 nM | < 100 nM | < 100 nM |  |  |  | 
COc1cc2nccc(Oc3ccc(NC(=O)c4c(C)c(Br)c(C)n(-c5ccccc5)c4=O)cc3F)c2nc1OC [Compound 747, 5-bromo-N-[4-[(6,7-dimethoxy-1,5-naphthyridin-4-yl)oxy]-3-fluorophenyl]-4,6-dimethyl-2-oxo-1-phenylpyridine-3-carboxamide] | < 100 nM | < 100 nM | 100 to 300 nM | < 100 nM |  |  |  | 
COc1cc2nccc(Oc3ccc(NC(=O)c4c5n(cc(-c6ccc(F)cc6)c4=O)CCOC5)cc3F)c2nc1OC [Compound 808, N-[4-[(6,7-dimethoxy-1,5-naphthyridin-4-yl)oxy]-3-fluorophenyl]-7-(4-fluorophenyl)-8-oxo-3,4-dihydro-1H-pyrido[2,1-c][1,4]oxazine-9-carboxamide] |  |  |  |  | < 100 nM | < 100 nM | > 300 nM | < 100 nM
COc1cc2nccc(Oc3ccc(NC(=O)c4cn(CCO)c(CO)c(-c5ccc(F)cc5C)c4=O)cc3F)c2nc1OC [Compound 765, N-[4-[(6,7-dimethoxy-1,5-naphthyridin-4-yl)oxy]-3-fluorophenyl]-5-(4-fluoro-2-methylphenyl)-1-(2-hydroxyethyl)-6-(hydroxymethyl)-4-oxopyridine-3-carboxamide] | < 100 nM | < 100 nM | > 300 nM | < 100 nM |  |  |  | 
COc1cc2nccc(Oc3ccc(NC(=O)c4c(C)c(C#N)c(C)n(-c5ccc(F)cc5)c4=O)cc3)c2nc1OC [Compound 320, 5-Cyano-N-[4-[(6,7-dimethoxy-1,5-naphthyridin-4-yl)oxy]phenyl]-1-(4-fluorophenyl)-4,6-dimethyl-2-oxopyridine-3-carboxamide] | < 100 nM | < 100 nM | > 300 nM | < 100 nM |  |  |  | 
